Measurements taken from ChEMBL document CHEMBL1201862, “PubChem BioAssay data set” (2004).
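In this assay, cells in 96-well plates receive the compound at five concentrations for 48 hours. Endpoints are linearly interpolated between the surrounding concentrations. At the GI50, growth is halved.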 Calls of active or inactive are those of the source. Rule as the data show it: active = GI50 up to about 1.1 µM and inactive = higher.

Tests used:
Assay in all cases: DTP human tumour cell line panel, 48 h
[1] = test system: SK-MEL-2
[2] = test system: HT-29
[3] = test system: RPMI-8226
[4] = test system: MCF7
[5] = test system: TK-10
[6] = test system: HCT-116
[7] = test system: HCT-15
[8] = test system: ACHN
[9] = test system: OVCAR-3
[10] = test system: HOP-62
[11] = test system: MDA-MB-231
[12] = test system: UO-31
[13] = test system: HL-60
[14] = test system: SN12C
[15] = test system: HCC 2998
[16] = test system: MDA-N
[17] = test system: UACC-62
[18] = test system: NCI-H522
[19] = test system: 786-0
[20] = test system: SF-268
[21] = test system: CAKI-1
[22] = test system: T47D
[23] = test system: SK-MEL-28
[24] = test system: DU-145
[25] = test system: A498
[26] = test system: Hs-578T
[27] = test system: COLO 205
[28] = test system: SW-620
[29] = test system: A549
[30] = test system: UACC-257
[31] = test system: IGROV-1
[32] = test system: SNB-75
[33] = test system: CCRF-CEM
[34] = test system: M14
[35] = test system: SK-MEL-5
[36] = test system: OVCAR-5
[37] = test system: LOX IMVI
[38] = test system: NCI/ADR-RES
[39] = test system: HOP-92
[40] = test system: OVCAR-8
[41] = test system: SF-539
[42] = test system: EKVX
[43] = test system: NCI-H23
[44] = test system: SNB-19
[45] = test system: KM12
[46] = test system: Malme-3M
[47] = test system: NCI-H460
[48] = test system: MDA-MB-435
[49] = test system: U-251
[50] = test system: OVCAR-4
[51] = test system: SF-295
[52] = test system: PC-3
[53] = test system: MOLT-4
[54] = test system: K562
[55] = test system: SK-OV-3
[56] = test system: NCI-H226
[57] = test system: RXF 393
[58] = test system: SR

C=CCOc1ccc(C2c3c(n[nH]c3O)CC(O)(OCC)C2C(=O)OCC)cc1OC (centres undefined)
GI50 [1]: > 100 µM (inactive) | GI50 [2]: > 100 µM (inactive) | GI50 [3]: > 100 µM (inactive) | GI50 [4]: > 100 µM (inactive) | GI50 [5]: > 100 µM (inactive) | GI50 [6]: > 100 µM (inactive) | GI50 [7]: > 100 µM | GI50 [8]: > 100 µM (inactive) | GI50 [9]: > 100 µM (inactive) | GI50 [10]: > 100 µM (inactive) | GI50 [11]: > 100 µM (inactive) | GI50 [12]: > 100 µM (inactive) | GI50 [13]: > 100 µM (inactive) | GI50 [14]: > 100 µM (inactive) | GI50 [15]: > 100 µM (inactive) | GI50 [16]: > 100 µM (inactive) | GI50 [17]: 0.1 µM (active) | GI50 [18]: > 100 µM (inactive) | GI50 [19]: > 100 µM (inactive) | GI50 [20]: > 100 µM (inactive) | GI50 [21]: > 100 µM (inactive) | GI50 [22]: > 100 µM (inactive) | GI50 [23]: > 100 µM (inactive) | GI50 [24]: > 100 µM (inactive) | GI50 [25]: > 100 µM (inactive) | GI50 [26]: > 100 µM (inactive) | GI50 [27]: > 100 µM (inactive) | GI50 [28]: > 100 µM (inactive) | GI50 [29]: > 100 µM (inactive) | GI50 [30]: > 100 µM (inactive) | GI50 [31]: > 100 µM (inactive) | GI50 [32]: > 100 µM (inactive) | GI50 [33]: > 100 µM (inactive) | GI50 [34]: > 100 µM (inactive) | GI50 [35]: > 100 µM (inactive) | GI50 [36]: > 100 µM (inactive) | GI50 [37]: > 100 µM (inactive) | GI50 [38]: > 100 µM (inactive) | GI50 [39]: > 100 µM (inactive) | GI50 [40]: > 100 µM (inactive) | GI50 [41]: > 100 µM (inactive) | GI50 [42]: > 100 µM (inactive) | GI50 [43]: > 100 µM (inactive) | GI50 [44]: > 100 µM (inactive) | GI50 [45]: > 100 µM (inactive) | GI50 [46]: > 100 µM (inactive) | GI50 [47]: > 100 µM (inactive) | GI50 [48]: > 100 µM (inactive) | GI50 [49]: > 100 µM (inactive) | GI50 [50]: > 100 µM (inactive) | GI50 [51]: > 100 µM (inactive) | GI50 [52]: > 100 µM (inactive) | GI50 [53]: > 100 µM (inactive)

Cc1ccc2nc(N/N=C/c3ccc(C)s3)cc(C)c2c1
GI50 [1]: 19 µM (inactive) | GI50 [2]: 3.51 µM (inactive) | GI50 [3]: 3.61 µM (inactive) | GI50 [4]: 6.79 µM (inactive) | GI50 [5]: 8.97 µM (inactive) | GI50 [6]: 3.7 µM (inactive) | GI50 [7]: 4.52 µM | GI50 [8]: 11.7 µM (inactive) | GI50 [9]: 6.24 µM (inactive) | GI50 [10]: 15.7 µM (inactive) | GI50 [11]: 16.1 µM (inactive) | GI50 [12]: 9.82 µM (inactive) | GI50 [13]: 4.71 µM (inactive) | GI50 [14]: 12.7 µM (inactive) | GI50 [15]: 4.69 µM (inactive) | GI50 [16]: 7.8 µM (inactive) | GI50 [17]: 10.6 µM (inactive) | GI50 [18]: 4.52 µM (inactive) | GI50 [19]: 3.37 µM (inactive) | GI50 [20]: 11.6 µM (inactive) | GI50 [21]: 17.1 µM (inactive) | GI50 [54]: 3.99 µM (inactive) | GI50 [22]: 7.91 µM (inactive) | GI50 [23]: 6.76 µM (inactive) | GI50 [24]: 11 µM (inactive) | GI50 [55]: 18.3 µM (inactive) | GI50 [26]: 15.2 µM (inactive) | GI50 [27]: 3.79 µM (inactive) | GI50 [28]: 6.1 µM (inactive) | GI50 [29]: 6.79 µM (inactive) | GI50 [30]: 5.56 µM (inactive) | GI50 [31]: 6.87 µM (inactive) | GI50 [32]: > 10 µM (inactive) | GI50 [33]: 5.11 µM (inactive) | GI50 [34]: 10.2 µM (inactive) | GI50 [35]: 4.56 µM (inactive) | GI50 [36]: 10.1 µM (inactive) | GI50 [37]: 4.53 µM (inactive) | GI50 [38]: 12.3 µM (inactive) | GI50 [39]: 4.44 µM (inactive) | GI50 [40]: 12.9 µM (inactive) | GI50 [41]: 11 µM (inactive) | GI50 [42]: 5.7 µM (inactive) | GI50 [43]: 7.98 µM (inactive) | GI50 [44]: 12.9 µM (inactive) | GI50 [56]: 10.1 µM (inactive) | GI50 [45]: 4.76 µM (inactive) | GI50 [46]: 12.8 µM (inactive) | GI50 [48]: 7.31 µM (inactive) | GI50 [49]: 9.51 µM (inactive) | GI50 [57]: 13.3 µM (inactive) | GI50 [50]: 10.3 µM (inactive) | GI50 [51]: 7.94 µM (inactive) | GI50 [58]: 19.7 µM (inactive) | GI50 [52]: 11.8 µM (inactive) | GI50 [53]: 5.75 µM (inactive)
